± gives the expanded uncertainty stated by the source.
Conditions: Liquid, Vibrating tube method

CCCCCCCCCCCC [dodecane]
mass density [kg/m3]
Conditions	293 K	313 K	333 K	353 K	373 K	393 K	413 K	433 K	448 K	468 K
2100 kPa	752.3 ± 2	737.7 ± 2	722.8 ± 2	708.1 ± 2.1	693.2 ± 2.1	678.1 ± 2.1	662.8 ± 2.1	646.8 ± 2.1	634.6 ± 2.2	617.8 ± 2.2
3100 kPa	752.9 ± 2	738.5 ± 2	723.6 ± 2	709 ± 2.1	694.3 ± 2.1	679.2 ± 2.1	664.2 ± 2.1	648.5 ± 2.1	636.7 ± 2.1	619.9 ± 2.2
4100 kPa	753.6 ± 2	739.2 ± 2	724.5 ± 2.1	710 ± 2.1	695.3 ± 2.1	680.4 ± 2.1	665.6 ± 2.1	650 ± 2.1	638.2 ± 2.1	622 ± 2.2
5000 kPa	754.2 ± 2	739.9 ± 2	725.3 ± 2.1	710.9 ± 2.1	696.3 ± 2.1	681.6 ± 2.1	666.9 ± 2.1	651.6 ± 2.1	640 ± 2.2	624.1 ± 2.2
10100 kPa	757.5 ± 2	743.4 ± 2	729.4 ± 2	715.6 ± 2.1	701.5 ± 2.1	687.5 ± 2.1	673.7 ± 2.1	659.5 ± 2.1	648.5 ± 2.1	634.1 ± 2.1
20000 kPa	763.5 ± 2.1	750.1 ± 2.1	736.6 ± 2.1	723.9 ± 2.1	710.8 ± 2.1	697.8 ± 2.1	685.1 ± 2.1	672 ± 2.1	662.4 ± 2.1	649.5 ± 2.1
30000 kPa	769 ± 2.1	756.3 ± 2.1	743.4 ± 2.1	731.3 ± 2.1	718.7 ± 2.1	706.6 ± 2.1	694.9 ± 2.1	682.8 ± 2.1	674 ± 2.1	661.8 ± 2.1
40000 kPa	774.3 ± 2.1	761.8 ± 2.1	749.6 ± 2.1	737.7 ± 2.1	726 ± 2.1	714.7 ± 2.1	703.6 ± 2.1	692.1 ± 2.1	684 ± 2.1	672.8 ± 2.2
50000 kPa	779 ± 2.1	767.1 ± 2.1	755.3 ± 2.1	744.1 ± 2.1	733.1 ± 2.1	722.2 ± 2.1	711.4 ± 2.2	700.6 ± 2.2	692.9 ± 2.2	682.6 ± 2.2
60000 kPa	783.8 ± 2.1	772.1 ± 2.1	760.8 ± 2.1	750.1 ± 2.1	739.4 ± 2.2	728.7 ± 2.2	718.7 ± 2.2	708.3 ± 2.2	701 ± 2.2	691 ± 2.2
69900 kPa	788 ± 2.1	777 ± 2.2	766 ± 2.2	755.6 ± 2.2	745.2 ± 2.2	735.1 ± 2.2	725.4 ± 2.2	715.6 ± 2.2	708.3 ± 2.2	698.9 ± 2.3
79900 kPa	792.5 ± 2.2	781.6 ± 2.2	770.9 ± 2.2	760.7 ± 2.2	750.7 ± 2.2	741.1 ± 2.2	731.7 ± 2.2	722.1 ± 2.3	715.3 ± 2.3	706.3 ± 2.3
89900 kPa	796.7 ± 2.2	786.1 ± 2.2	775.7 ± 2.2	765.7 ± 2.2	756 ± 2.2	746.8 ± 2.3	737.3 ± 2.3	728.3 ± 2.3	721.9 ± 2.3	712.9 ± 2.3
99900 kPa	800.8 ± 2.2	790.4 ± 2.2	780.1 ± 2.2	770.5 ± 2.3	761 ± 2.3	752.2 ± 2.3	743.2 ± 2.3	734.3 ± 2.3	727.9 ± 2.3	719.2 ± 2.4
109900 kPa	804.8 ± 2.2	794.6 ± 2.2	784.6 ± 2.3	775.1 ± 2.3	765.9 ± 2.3	757.2 ± 2.3	748.5 ± 2.3	739.8 ± 2.4	733.5 ± 2.4	725.1 ± 2.4
119900 kPa	808.7 ± 2.3	798.7 ± 2.3	788.8 ± 2.3	779.6 ± 2.3	770.6 ± 2.3	762 ± 2.4	753.7 ± 2.4	745.1 ± 2.4	739 ± 2.4	731 ± 2.4
129900 kPa	812.4 ± 2.3	802.7 ± 2.3	793.2 ± 2.3	784 ± 2.3	775.1 ± 2.4	766.8 ± 2.4	758.5 ± 2.4	750.3 ± 2.4	744.2 ± 2.5	736.3 ± 2.5
134900 kPa	814.4 ± 2.3	804.6 ± 2.3	795.1 ± 2.3	786 ± 2.4	777.4 ± 2.4	769 ± 2.4	760.9 ± 2.4	752.7 ± 2.5	746.7 ± 2.5	738.9 ± 2.5
137400 kPa	815.2 ± 2.3	805.4 ± 2.3	796 ± 2.3	787 ± 2.4	778.5 ± 2.4	770.2 ± 2.4	762 ± 2.4	753.9 ± 2.5	747.9 ± 2.5	740.2 ± 2.5

c1ccccc1 [benzene]
mass density [kg/m3]
Conditions	293 K	313 K	333 K	353 K	373 K	393 K	413 K	433 K	448 K	468 K
2100 kPa	877.4 ± 2	857 ± 2.1	835.1 ± 2	813.1 ± 2.1	790.7 ± 2.1	767.6 ± 2.2	743 ± 2.3	716.7 ± 2.4	696 ± 2.5	666.9 ± 2.5
3100 kPa	878.1 ± 2	857.8 ± 2	836 ± 2	814.2 ± 2.1	792.1 ± 2.1	769.4 ± 2.1	745.1 ± 2.2	719.4 ± 2.3	699.2 ± 2.4	670.7 ± 2.5
4100 kPa	878.8 ± 2	858.7 ± 2	837 ± 2.1	815.4 ± 2.1	793.4 ± 2.1	770.9 ± 2.1	747 ± 2.2	721.8 ± 2.2	702.1 ± 2.3	674.3 ± 2.5
5000 kPa	879.6 ± 2	859.6 ± 2	838 ± 2.1	816.5 ± 2.1	794.7 ± 2.1	772.5 ± 2.1	748.8 ± 2.1	724 ± 2.2	704.8 ± 2.3	677.8 ± 2.5
10100 kPa	883.4 ± 2	863.9 ± 2	842.7 ± 2	822.3 ± 2.1	801.4 ± 2.1	780 ± 2.1	758 ± 2.1	735.4 ± 2.2	717.8 ± 2.2	693.2 ± 2.3
20000 kPa	890.4 ± 2	871.5 ± 2	851.8 ± 2	832.3 ± 2.1	812.9 ± 2.1	793 ± 2.1	773.2 ± 2.1	753 ± 2.1	738 ± 2.2	717 ± 2.2
30000 kPa	896.9 ± 2	878.7 ± 2	859.4 ± 2	841.2 ± 2	823.1 ± 2.1	804.5 ± 2.1	786.2 ± 2.1	767.8 ± 2.1	754.2 ± 2.1	735.1 ± 2.2
40000 kPa	902.9 ± 2	885.2 ± 2	867 ± 2	849.5 ± 2.1	832.3 ± 2.1	814.6 ± 2.1	797.5 ± 2.1	780.3 ± 2.1	767.8 ± 2.1	750.3 ± 2.1
50000 kPa	908.6 ± 2	891.6 ± 2	874.2 ± 2	857 ± 2.1	840.7 ± 2.1	824 ± 2.1	807.8 ± 2.1	791.6 ± 2.1	779.8 ± 2.1	763.6 ± 2.1
60000 kPa	914 ± 2	897.5 ± 2	880.8 ± 2	864.3 ± 2.1	848.2 ± 2.1	832.6 ± 2.1	817.2 ± 2.1	801.7 ± 2.1	790.6 ± 2.1	775.5 ± 2.1
70000 kPa	919.6 ± 2	902.9 ± 2	886.7 ± 2	871.2 ± 2.1	855.7 ± 2.1	841 ± 2.1	825.8 ± 2.1	811 ± 2.1	800.3 ± 2.1	786.1 ± 2.1
